Data on 12 molecules can be found in patent US10590130B2, “Chemical compounds” (AstraZeneca AB, priority 2016, dated 2020).

The nature of data set [1]: log D (shake flask, octanol/aqueous buffer). It is filed as physicochemical. The following applies: 1-octanol/aqueous buffer. From the text:
Physical Properties log D
The lipophilicity of a drug is an important physical property which may influence many biological and metabolic properties of a compound, for example the absorption, distribution, metabolism, excretion and toxicity profiles of a compound. The distribution coefficient between 1-octanol and aqueous buffer, Log DO/W, at pH 7.4, is the most commonly used measurement of the lipophilicity of a compound. The current method for measurement of Log DO/W is based on the traditional shake flask technique, but with the modification of measuring compounds in mixtures of ten at a time using UPLC with quantitative mass spectrometry (MS) as a method to measure the relative octanol and aqueous concentrations. […] An additional QC sample Caffeine, with low Log D, are used and randomly placed in all runs. The method has been thoroughly validated against the previous shake flask methodologies.

A short description of data set [2]: Human hepatocyte assay (metabolic stability). It is filed as in vitro ADME. The following applies: human hepatocytes, in vitro intrinsic clearance. On the procedure:
The metabolic stability of compounds in human hepatocytes was assessed using the following protocol: • 1. Prepare 10 mM stock solutions of compound and control compounds in appropriate solvent (DMSO). Place incubation medium (L-15 Medium) in a 37° C. water bath, and allow warming for at least 15 minutes prior to use. • 2. Add 80 μL of acetonitrile to each well of the 96-well deep well plate (quenching plate). • 3. In a new 96-well plate, dilute the 10 mM test compounds and the control compounds to 100 μM by combining 198 μL of acetonitrile and 2 μL of 10 mM stock. • 4. Remove a vial of cryopreserved (less than −150° C.) human hepatocytes (LiverPool™ 10 Donor Human hepatocytes obtained from Celsis IVT. Chicago, Ill. (Product No. S01205)) from storage, ensuring that vials remain at cryogenic temperatures until thawing process ensues. As quickly as possible, thaw the cells by placing the vial in a 37° C. water bath and gently shaking the vials. Vials should remain in water bath until all ice crystals have dissolved and are no longer visible. After thawing is complete, spray vial with 70% ethanol, transfer the vial to a bio-safety cabinet. • 5. Open the vial and pour the contents into the 50 mL conical tube containing thawing medium. Place the 50 mL conical tube into a centrifuge and spin at 100 g for 10 minutes. […] Using Cellometer® Vision, count cells and determine the viable cell density. Cells with poor viability (<80% viability) are not acceptable for use. […] Transfer 247.5 μL of hepatocytes into each well of a 96-well cell culture plate. Place the plate on Eppendorf Thermomixer Comfort plate shaker to allow the hepatocytes to warm for 10 minutes. • 8. Add 2.5 μL of 100 μM test compound or control compounds into an incubation well containing cells, mix to achieve a homogenous suspension at 0.5 min, which when achieved, will define the 0.5 min time point. At the 0.5 min time, transfer 20 μL of incubated mixture to wells in a “Quenching plate” followed by vortexing. • 9. Incubate the plate at 37° C. at 900 rpm on an Eppendorf Thermomixer Comfort plate shaker. […] Centrifuge the quenching plates for 20 minutes at 4,000 rpm. 4 different compounds are pooled into one cassette and used for LC/MS/MS analysis.
All calculations were carried out using Microsoft Excel. Peak areas were determined from extracted ion chromatograms. In vitro intrinsic clearance (in vitro Clint, in […]) of parent compound was determined by regression analysis of the Ln percent parent disappearance vs. time curve.
V=incubation volume (0.25 mL);
N=number of hepatocytes per well (0.25×10^6 cells).

With `COC[C@](C)(F)CN1[C@H](c2ccc(OC3CN(CCCF)C3)cc2OC)c2ccc3[nH]ncc3c2C[C@H]1C` (single isomer, unassigned) [Example 13], in data set [1], the “LogD pH 7.4” value turned out to be 4. Molecule `COc1cc(NC2CN(CCCF)C2)ccc1[C@@H]1c2ccc3[nH]ncc3c2C[C@@H](C)N1CC(F)(F)F` [Example 28, 1-(3-fluoropropyl)-N-(3-methoxy-4-((6S,8R)-8-methyl-7-(2,2,2-trifluoroethyl)-6,7,8,9-tetrahydro-3H-pyrazolo[4,3-f]isoquinolin-6-yl)phenyl)azetidin-3-amine] displayed a Clint in data set [2] of 5 μL/min/10^6 cells. The same measure, in the same setting: in the case of `COc1cc(NC2CN(CCCF)C2)ccc1[C@@H]1c2ccc3[nH]ncc3c2C[C@@H](C)N1CC1(F)CC1` [Example 6, N-(4-((6S,8R)-7-((l-fluorocyclopropyl)methyl)-8-methyl-6,7,8,9-tetrahydro-3H-pyrazolo[4,3-f]isoquinolin-6-yl)-3-methoxyphenyl)-1-(3-fluoropropyl)azetidin-3-amine] it was 2 μL/min/10^6 cells; in that of `COc1cc(NC2CN(CCCF)C2)ccc1[C@@H]1c2ccc3[nH]ncc3c2C[C@@H](C)N1CC(F)F` [Example 21, N-(4-((6S,8R)-7-(2,2-difluoroethyl)-8-methyl-6,7,8,9-tetrahydro-3H-pyrazolo[4,3-f]isoquinolin-6-yl)-3-methoxyphenyl)-1-(3-fluoropropyl)azetidin-3-amine], 6 μL/min/10^6 cells; in that of `C[C@@H]1Cc2c(ccc3[nH]ncc23)[C@@H](c2ccc(NC3CN(CCCF)C3)cn2)N1CC1(F)CC1` [Example 3, 6-((6S,8R)-7-((l-fluorocyclopropyl)methyl)-8-methyl-6,7,8,9-tetrahydro-3H-pyrazolo[4,3-f]isoquinolin-6-yl)-N-(1-(3-fluoropropyl)azetidin-3-yl)pyridin-3-amine], 5 μL/min/10^6 cells.

In data set [2], `COc1cc(NC2CN(CCCF)C2)ccc1[C@@H]1c2ccc3[nH]ncc3c2C[C@@H](C)N1CC(C)(F)F` [Example 19, N-(4-((6S,8R)-7-(2,2-difluoropropyl)-8-methyl-6,7,8,9-tetrahydro-3H-pyrazolo[4,3-f]isoquinolin-6-yl)-3-methoxyphenyl)-1-(3-fluoropropyl)azetidin-3-amine] yielded a Clint of 5 μL/min/10^6 cells. The same measure, in the same setting: the figure for `C[C@@H]1Cc2c(ccc3[nH]ncc23)[C@@H](c2ccc(NC3CN(CCCF)C3)cn2)N1CC(F)F` [Example 25, 6-((6S,8R)-7-(2,2-difluoroethyl)-8-methyl-6,7,8,9-tetrahydro-3H-pyrazolo[4,3-f]isoquinolin-6-yl)-N-(1-(3-fluoropropyl)azetidin-3-yl)pyridin-3-amine] is 5 μL/min/10^6 cells. As to `COCC(F)(F)CN1[C@H](c2ccc(NC3CN(CCCF)C3)cn2)c2ccc3[nH]ncc3c2C[C@H]1C` [Example 2, 6-((6S,8R)-7-(2,2-difluoro-3-methoxypropyl)-8-methyl-6,7,8,9-tetrahydro-3H-pyrazolo[4,3-f]isoquinolin-6-yl)-N-(1-(3-fluoropropyl)azetidin-3-yl)pyridin-3-amine], the Clint in data set [2] came out at 6 μL/min/10^6 cells. Same read-out and setting: in the case of `C[C@@H]1Cc2c(ccc3[nH]ncc23)[C@@H](c2c(F)cc(NC3CN(CCCF)C3)cc2F)N1CC1(F)CC1` [Example 11, N-(3,5-difluoro-4-((6S,8R)-7-((1-fluorocyclopropyl)methyl)-8-methyl-6,7,8,9-tetrahydro-3H-pyrazolo[4,3-f]isoquinolin-6-yl)phenyl)-1-(3-fluoropropyl)azetidin-3-amine] it was 7 μL/min/10^6 cells.

Consider `COCC(F)(F)CN1[C@H](c2ccc(NC3CN(CCCF)C3)cc2OC)c2ccc3[nH]ncc3c2C[C@H]1C` [Example 1, N-(4-((6S,8R)-7-(2,2-difluoro-3-methoxypropyl)-8-methyl-6,7,8,9-tetrahydro-3H-pyrazolo[4,3-f]isoquinolin-6-yl)-3-methoxyphenyl)-1-(3-fluoropropyl)azetidin-3-amine], for which, in data set [2], the Clint is reported as 11 μL/min/10^6 cells. Turning to `C[C@@H]1Cc2c(ccc3[nH]ncc23)[C@@H](c2ncc(NC3CN(CCCF)C3)cc2F)N1CC1(F)CC1` [Example 18, 5-fluoro-6-((6S,8R)-7-((1-fluorocyclopropyl)methyl)-8-methyl-6,7,8,9-tetrahydro-3H-pyrazolo[4,3-f]isoquinolin-6-yl)-N-(1-(3-fluoropropyl)azetidin-3-yl)pyridin-3-amine], the Clint in data set [2] was 3 μL/min/10^6 cells. Molecule `C[C@@H]1Cc2c(ccc3[nH]ncc23)[C@@H](c2ccc(NC3CN(CCCF)C3)cc2)N1CC(F)F` [Example 48, N-(4-((6R,8R)-7-(2,2-difluoroethyl)-8-methyl-6,7,8,9-tetrahydro-3H-pyrazolo[4,3-f]isoquinolin-6-yl)phenyl)-1-(3-fluoropropyl)azetidin-3-amine] had a Clint in data set [2] of 4 μL/min/10^6 cells.
